In patent US6248718A, “Lesion-directed dry dosage forms of antibacterial agents for the treatment of acute mucosal infections of the oral cavity” (priority 1999, dated 2001):
Where “and” joins values, the source holds several entries; their conditions need not be identical. Identical values can stand only once. Entries after “also recorded” stand apart in the source; their conditions may differ.

Columns and labels:
[1] = test system: bacteria in saliva in the vicinity of the canker ulcer; assay: Bacterial inhibition in saliva of canker sore patients in vivo (Example VI)
Procedure: (§1) Six (6) adult, otherwise healthy patients suffering from recurrent minor canker sores were selected for this study from July 10 to Nov. 12, 1998. The drug substance used for this study was crystalline penicillin G potassium salt, U.S.P. grade, purchased from Sigma Chemical Co., St. Louis, Mo. 63178 (Lot No. 57H1195).
(§2) On the first or the second day after the patients noticed the formation of the canker ulcers, 50 mg of penicillin G potassium was administered topically with a spatula or the handle of a teaspoon as dry powder directly over the canker ulcers, four times a day, i.e. after breakfast, after lunch, after supper and before bed time. The patients were advised to retain the antibiotic powder and its concentrated solution in a small pocket of saliva at the site of the ulcer and to avoid its excessive dilution by saliva from other parts of the oral cavity for one hour after each application of the antibiotic powder. No food or drink was allowed during this one-hour period.
Samples of 0.1 ml of saliva at the site in the vicinity of the canker ulcer were pipetted from the mouth immediately before instituting the first penicillin G potassium application and about 60-70 minutes after the first antibiotic application. Each sample was spread on the surface of a 10-cm blood agar Petri dish with a sterile plastic loop. The inoculated plates were incubated aerobically at 37° C. for 18 hours as described above. The total numbers of bacterial colonies on each plate were estimated. The dominating species of the microorganisms were identified according to the approved protocols routinely used in a clinical microbiology laboratory. The results are tabulated as follows
On day 2, about 48 hours after the medication was initiated, the patients collected an early morning sample of saliva immediately after getting up and submitted it to the laboratory for culture. While in the laboratory, a second sample of the residual exudate covering the ulcer was taken from the patient for a post-treatment follow-up microscopy after Congo red negative staining.
On day 6, i.e. two days after the last dose of medication, the patients were instructed to collect a sample of saliva in a sterile test tube upon waking up in the morning before brushing their teeth. The saliva was brought to the laboratory. Aliquot of 0.1 ml of each saliva sample was pipetted and inoculated on the surface of a blood agar plate and incubated aerobically as described previously. After 18 hours of incubation, there were more 3,000 colonies growing on each blood agar plate. The overwhelming majority of the colonies were those of Neisseriae and non-β-hemolytic streptococci, similar to those observed in FIG. 1.

[2] = Local concentrations of penicillin in saliva after penicillin G potassium 50 mg tablet (Example IX); type: in vivo, human
Procedure: Five healthy adult volunteers, three men and two women, were selected for this study.
On the day of study, two hours after breakfast, the volunteers were given a single tablet of the drug, placed in the right oral sulcus between the lower gum and the buccal mucosa to be dissolved in a minimum amount of saliva in about six (6) minutes. This loculated pocket of saliva was not to be swallowed and was not to be further diluted by saliva from other parts of the mouth for one hour. At 6 minutes, 20 minutes, 40 minutes and 60 minutes after drug application, an aliquot of 0.01 ml was aspirated from this pocket of saliva and added into a test tube containing 10 ml of nutrient broth to give a 1,000 times dilution. After being mixed well, aliquots of the mixtures of saliva sample and nutrient broth were forced to pass through bacterial filters into sterile test tubes. Thcn 0.8 ml of each 1:1,000 diluted filtrate was pipetted and added to 3.2 ml of nutrient broth to make an additional 5 times dilution in a volume of 4 ml. Two ml was pipetted from the latter to make a serial double dilution of saliva sample in 2 ml of nutrient broth, as described above under a, in 12 test tubes. The dilution factor for the saliva sample in test No. 1 was 5,000 and […] progressively to 1:10,240,000 in test tube No.12.
Each filtered mixture in test tube was inoculated with 0.1 ml of a 1:1,000 dilution of a 12 hour broth culture of Staphyloccus aureus ATCC 29213.
A row of 6 test tubes each containing 2 ml of nutrient broth with decreasing concentrations of penicillin G potassium, USP Reference Standard 502508, at 6.2, 3.1, 1.5, 0.75, 0.32, and 0.16 mcg/ml, using a serial double dilution method described in a., was prepared and similarly inoculated with 0.1 ml broth culture of Staphyloccus aureus ATCC 29213 as the standard.
All test tubes were incubated at 37° C. for 18 hours and observed for bacterial growth against an inoculated broth containing neither antibiotic nor saliva samples.
The test tube of highest number with the highest dilution factor of saliva in nutrient broth in which no bacterial growth was observed was interpreted as containing an equivalent of penicillin G potassium at 0.75 mcg/ml. Using the dilution factors, it was calculated that, after topical application of the drug product, the concentrations of penicillin G potassium in the saliva at the site of medication within the first hour were as follows.

[3] = test system: bacteria in saliva of healthy volunteers; assay: Inhibition of bacterial growth in the saliva in vivo (Example V); details: for bacterial colonies from saliva after topical medication: 1 hour, 0.1 ml saliva
Procedure: Five healthy adult volunteers, three men and two women, were asked to refrain from drinking or eating for two hours after breakfast. At the end of two hours, an aliquot of 0.1 ml of saliva was pipetted from the mouth of each volunteer and spread over the surface of a sheep blood agar plate with a sterile plastic loop. The inoculated blood agar plate was incubated in an aerobic atmosphere containing 5% CO2 as pre-medication control. Then 100 mg, 50 mg, 20 mg, 10 mg and 2 mg of penicillin G potassium dry powder, USP grade, were placed in the right buccal pouch with a spatula between the cheek and the lower gum of each volunteer, respectively. The volunteers were asked to retain the dissolved penicillin powder at the site of medication as concentrated as possible, not to be diluted by saliva from other parts of the mouth for one hour.
At the end of one hour, 0.1 ml of saliva from each volunteer was pipetted from the right buccal pouch where the medication was placed, and inoculated and spread onto the surface of a sheep blood agar plate. The inoculum was spread with a sterile plastic loop.

[4] = Healing of canker sores in patients (Example VI); type: in vivo, human; details: 50 mg four times a day, four days course, six patients
Procedure: as §1, §2

## CC1(C)S[C@@H]2[C@H](NC(=O)Cc3ccccc3)C(=O)N2[C@H]1C(=O)O [penicillin G potassium]
[1]; 50 mg
  duration of inhibitory effect on oral flora: not long-lasting
[1]; 50 mg four times a day, intermittent
  alteration of normal oral flora: not permanently altered; also recorded: did not seem to alter the dominant microbial components of the normal flora
[1]; 50 mg powder, about 60-70 minutes, 0.1 ml saliva, per patient, Y = yeast
  Colonies after Treatment: 0 and 2 and Two
[1]; 50 mg powder, about one hour
  inhibition of bacteria in saliva covering the ulcer: totally destroyed or inhibited; also recorded: intermittent total inhibition of bacterial growth in the saliva
[1]; day 2, about 48 hours after start of medication, 0.1 ml
  bacterial colonies in early morning saliva: more than 3,000 bacterial colonies
[1]; day 6, two days after last dose, 0.1 ml
  bacterial colonies in morning saliva: > 3,000 colonies
[2]; human, saliva, topical or ocular, 50 mg tablet, 6 min
  concentration at 0.1 h: 240000 to 480000 µg/mL
[2]; human, saliva, topical or ocular, 50 mg tablet, 20 min
  concentration at 20 min: 120000 to 240000 µg/mL
[2]; human, saliva, topical or ocular, 50 mg tablet, 40 min
  concentration at 40 min: 30000 to 60000 µg/mL
[2]; human, saliva, topical or ocular, 50 mg tablet, 60 min
  concentration at 1 h: 7500 to 15000 µg/mL
[2]; tablet of 50 mg penicillin G potassium
  initial local concentration in saliva: about 480 mg/ml
[2]; tablet of 50 mg penicillin G potassium, 60 min
  local concentration in saliva in one hour: 7.5 to 15 mg/mL
[3]; 2 mg powder
  bacterial colonies from saliva after topical medication: a few isolated bacterial colonies; also recorded: partial inhibition of growth
[3]; 10 mg powder
  bacterial colonies from saliva after topical medication: no bacterial colonies
[3]; 20 mg powder
  bacterial colonies from saliva after topical medication: no bacterial colonies
[3]; 50 mg powder
  bacterial colonies from saliva after topical medication: no bacterial colonies
[3]; 100 mg powder
  bacterial colonies from saliva after topical medication: no bacterial colonies
[3]; powder, one-hour medication
  dose required for total cessation of bacterial growth in small pocket of saliva: at least 10 mg
[4]
  healing of canker sores: healed completely
